Source: publication PMC11053447, “Human ABC and SLC Transporters: The Culprit Responsible for Unspecific PSMA-617 Uptake?” (Pharmaceuticals, 2024)

Molecular target: T1, human PEPT2 (Homo sapiens, UniProt Q16348)
T1 sequence (Q16348 1-729): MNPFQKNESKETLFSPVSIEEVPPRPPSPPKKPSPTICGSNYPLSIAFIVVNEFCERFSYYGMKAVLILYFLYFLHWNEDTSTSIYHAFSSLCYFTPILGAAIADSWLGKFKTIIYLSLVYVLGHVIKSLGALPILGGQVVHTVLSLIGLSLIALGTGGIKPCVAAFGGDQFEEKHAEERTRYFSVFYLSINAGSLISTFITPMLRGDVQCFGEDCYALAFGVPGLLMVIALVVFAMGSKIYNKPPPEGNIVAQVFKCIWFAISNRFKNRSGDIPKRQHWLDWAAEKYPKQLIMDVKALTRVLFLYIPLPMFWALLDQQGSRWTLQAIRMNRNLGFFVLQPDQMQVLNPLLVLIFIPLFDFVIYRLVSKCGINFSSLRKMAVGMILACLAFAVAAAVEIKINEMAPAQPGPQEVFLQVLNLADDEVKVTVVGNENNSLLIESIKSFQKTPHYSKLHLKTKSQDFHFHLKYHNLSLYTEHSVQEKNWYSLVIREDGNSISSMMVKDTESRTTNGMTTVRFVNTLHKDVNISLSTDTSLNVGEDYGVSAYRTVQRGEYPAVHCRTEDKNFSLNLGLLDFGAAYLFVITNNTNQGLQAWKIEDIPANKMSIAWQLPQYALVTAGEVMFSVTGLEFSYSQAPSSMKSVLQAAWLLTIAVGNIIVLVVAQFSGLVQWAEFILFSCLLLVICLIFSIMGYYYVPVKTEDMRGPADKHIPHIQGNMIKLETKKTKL
Assay: SLC transporter substrate assay, CHO-K1-PEPT2 vs control CHO-K1 cells
Conditions: 20 min; for Max. transporter-specific fold accumulation, without inhibitor / Max. transporter-specific fold accumulation, with inhibitor: 0.3 µM; for Max. transporter-specific fold accumulation, with inhibitor: Cefadroxil
Experimental: The described cells were plated onto standard 24-well tissue culture plates at densities of 5 × 10^5 cells/well. […] Before starting the experiment, the cells were prepared by removing the medium and washing the cells twice with 300 µL of assay buffer. […] The cells were lysed by adding 300 µL of 0.1N NaOH, they were incubated for 10 min at 37 °C and 100 µL samples were taken from all the wells.
The amount of protein in each well was quantified using the BCA kit for protein determination (Sigma-Aldrich, St Louis, MO, USA). Positive controls were performed using a separate 96-well plate format according to Table S8 in SI4.
SI4. Results of transporter substrate assays (SLC)
Table S8: Parameters of positive controls, control cell lines and plating for SLC transporters assays.
KH: Krebs-Henseleit buffer, HBSS: Hank's balanced salt solution, MES: 2 -(N-morpholino) ethanesulfonic acid, cGMP:
Guanosine cyclic phosphate, E3S: Estrone -3-sulfate, Gly-Sar: Glycylsarcosine, MPP+: 1-methyl-4-phenylpyridinium.
Calculation of fold accumulation values for SLC transporter substrate assays The fold accumulation value was defined as the ratio of uptake of the test substance (TS) or probe substrate into transfected and control cells. If the fold accumulation is > 2 and can be inhibited by a known inhibitor of the transporter, the test substance can be considered as a substrate of the respective transporter.
Fold accumulation = UPTTRP
• UPTTRP: accumulated amount of test substance (TS) or probe substrate in transfected cells normalized by protein content […]
• UPTCTRL: accumulated amount of test substance (TS) or probe substrate in control cells normalized by protein content […]
Positive control conducted at pH 5.0.
Gly-Sar: Glycylsarcosine.

[1] = pH 5.0, 0.03 µM nominal + Cefadroxil 200 µM
[2] = pH 5.0, 0.03 µM nominal, no inhibitor
[3] = pH 5.0, 0.30 µM nominal + Cefadroxil 200 µM
[4] = pH 5.0, 0.30 µM nominal, no inhibitor
[5] = pH 6.0, 0.03 µM nominal + Cefadroxil 200 µM
[6] = pH 6.0, 0.03 µM nominal, no inhibitor
[7] = pH 6.0, 0.30 µM nominal + Cefadroxil 200 µM
[8] = pH 6.0, 0.30 µM nominal, no inhibitor

[3H]C(c1ccc2ccccc2c1)C([3H])(NC(=O)C1CCC(CNC(=O)CN2CCN(CC(=O)[O-])CCN(CC(=O)[O-])CCN(CC(=O)[O-])CC2)CC1)C(=O)NCCCCC(NC(=O)NC(CCC(=O)O)C(=O)O)C(=O)O.[Lu+3] (stereo not drawn) [([α,β-^3H]Nal)Lu-PSMA-617]
Uptake via transporter (PEPT2) (pH 5.0 and 6.0, absence and presence of cefadroxil): not taken up | Accumulation in PEPT2 transporter expressing cells [1]: 0.16 ± 0.03 pmol/mg protein | Accumulation in control cells [1]: 0.08 ± 0.00 pmol/mg protein | Accumulation, active transport [1]: 0.08 ± 0.03 pmol/mg protein | Fold accumulation [1]: 1.94 | Accumulation in PEPT2 transporter expressing cells [2]: 0.16 ± 0.03 pmol/mg protein | Accumulation in control cells [2]: 0.12 ± 0.01 pmol/mg protein | Accumulation, active transport [2]: 0.04 ± 0.03 pmol/mg protein | Fold accumulation [2]: 1.34 | Accumulation in PEPT2 transporter expressing cells [3]: 1.58 ± 0.48 pmol/mg protein | Accumulation in control cells [3]: 0.70 ± 0.12 pmol/mg protein | Accumulation, active transport [3]: 0.88 ± 0.50 pmol/mg protein | Fold accumulation [3]: 2.27 | Accumulation in PEPT2 transporter expressing cells [4]: 1.70 ± 0.50 pmol/mg protein | Accumulation in control cells [4]: 0.87 ± 0.16 pmol/mg protein | Accumulation, active transport [4]: 0.83 ± 0.53 pmol/mg protein | Fold accumulation [4]: 1.95 | Max. transporter-specific fold accumulation, without inhibitor (pH 5.0): 1.95 | Max. transporter-specific fold accumulation, with inhibitor (pH 5.0): 2.27 | Accumulation in PEPT2 transporter expressing cells [5]: 0.17 ± 0.05 pmol/mg protein | Accumulation in control cells [5]: 0.08 ± 0.01 pmol/mg protein | Accumulation, active transport [5]: 0.09 ± 0.05 pmol/mg protein | Fold accumulation [5]: 2.21 | Accumulation in PEPT2 transporter expressing cells [6]: 0.15 ± 0.05 pmol/mg protein | Accumulation in control cells [6]: 0.10 ± 0.04 pmol/mg protein | Accumulation, active transport [6]: 0.06 ± 0.06 pmol/mg protein | Fold accumulation [6]: 1.57 | Accumulation in PEPT2 transporter expressing cells [7]: 1.57 ± 0.55 pmol/mg protein | Accumulation in control cells [7]: 0.70 ± 0.16 pmol/mg protein | Accumulation, active transport [7]: 0.88 ± 0.58 pmol/mg protein | Fold accumulation [7]: 2.26 | Accumulation in PEPT2 transporter expressing cells [8]: 1.57 ± 0.45 pmol/mg protein | Accumulation in control cells [8]: 0.87 ± 0.07 pmol/mg protein | Accumulation, active transport [8]: 0.70 ± 0.45 pmol/mg protein | Fold accumulation [8]: 1.81 | Max. transporter-specific fold accumulation, without inhibitor (pH 6.0): 1.81 | Max. transporter-specific fold accumulation, with inhibitor (pH 6.0): 2.26
